The source of these data is patent publication US10898480B1, “Pharmaceutical composition for nasal delivery” (Orexo AB, priority 2019, dated 2021).

The data set relates to excised porcine nasal tissue. Description: Ex vivo nasal mucosal absorption, static diffusion (Franz) cell. To be noted: diffusion measured after 7 hours, compared with the other formulations.

Procedure: A standard static diffusion (Franz) cell set up was employed to set up an ex vivo model for nasal mucosa absorption, using an excised porcine nasal tissue.
Diffusion through the tissue was measured after 7 hours and permeation is shown as mean (three repeats) cumulative transport (μg/cm^2; with SD) in FIGS. 8 and 9 for naloxone and nalmefene, respectively.

Regarding benzalkonium chloride, the “Apparent permeation coefficient (Papp) of nalmefene” value is on record as “No corresponding absorption enhancement” and the “Apparent permeation coefficient (Papp) of naloxone” value is listed as “No corresponding absorption enhancement”.
